Legend:
HCT116 = HCT116 IC50 (Table 2, no method described); type: cell-based; conditions: Homo sapiens, HCT-116
HDAC-1 = target: T1, HDAC-1 (Homo sapiens, UniProt Q13547); test: HDAC Inhibition Assay (purified GST-HDAC protein); type: biochemical
T1 construct: made in house; host or cells: Sf9 or Sf21 insect cells (baculovirus, donor vector pFB-GSTX3)
From the text: The baculovirus donor vector pFB-GSTX3 is used to generate a recombinant baculovirus that expresses the HDAC polypeptide. Transfer vectors containing the HDAC coding region are transfected into the DH10Bac cell line (GIBCO) and plated on selective agar plates. Colonies without insertion of the fusion sequence into the viral genome (carried by the bacteria) are blue. Single, white colonies are picked and viral DNAs (bacmid) are isolated from the bacteria by standard plasmid purification procedures. Sf9 cells or Sf21 (American Type Culture Collection) cells are then transfected in […] flasks with the viral DNA using Cellfectin reagent.
Virus-containing media is collected from the transfected cell culture and used for infection to increase its titer. Virus-containing media obtained after two rounds of infection is used for large-scale protein expression. For large-scale protein expression 100 cm^2 round tissue culture plates are seeded with 5×10^7 cells/plate and infected with 1 mL of virus-containing media (at an approximately MOI of 5). After 3 days, the cells are scraped off the plate and centrifuged at 500 rpm for 5 minutes. Cell pellets from 10-20, 100 cm^2 plates, are re-suspended in 50 mL of ice-cold lysis buffer (25 mM tris-HCl, pH 7.5, 2 mM EDTA, 1% NP-40, 1 mM DTT, 1 mM P MSF). The cells are stirred on ice for 15 minutes and then centrifuged at 5,000 rpms for 20 minutes.
The centrifuged cell lysate is loaded onto a 2 mL glutathione-sepharose column (Pharmacia) and is washed thrice with 10 mL of 25 mM tris-HCl, pH 7.5, 2 mM EDTA, 1 mM DTT, 200 mM NaCl. The GST-tagged proteins are then eluted by 10 applications (1 mL each) of 25 mM tris-HCl, pH 7.5, 10 mM reduced-glutathione, 100 mM NaCl, 1 mM DTT, 10% glycerol and stored at −70° C.
HDAC assays with purified GST-HDAC protein are carried out in a final volume of 30 μL containing 15 ng of GST-HDAC protein, 20 mM tris-HCl, pH 7.5, 1 mM MnCl2, 10 mM MgCl2, 1 mM DTT, 3 μg/mL poly(Glu,Tyr) 4:1, 1% DMSO, 2.0 μM ATP (γ-[^33P]-ATP 0.1 μCi). The activity is assayed in the presence or absence of inhibitors. The assay is carried out in 96-well plates at ambient temperature for 15 minutes under conditions described below and terminated by the addition of 20 μL of 125 mM EDTA. Subsequently, 40 μL of the reaction mixture are transferred onto EMMOBILON-PVDF membrane (Millipore) previously soaked for 5 minutes with methanol, rinsed with water, then soaked for 5 minutes with 0.5% H3PO4 and mounted on vacuum manifold with disconnected vacuum source. After spotting all samples, a vacuum is connected and each well-rinsed with 200 μL 0.5% H3PO4. Membranes are removed and washed four times on a shaker with 1.0% H3PO4, once with ethanol. Membranes are counted after drying at ambient temperature, mounting in Packard TopCount 96-well frame, and addition of 10 μL/well of MICROSCINT™ (Packard). IC50 values are calculated by linear regression analysis of the percentage inhibition of each compound in duplicate, at 4 concentrations (usually 0.01, 0.1, 1 and 10 μM).
• Input: 3×4 μL stopped assay on IMMOBILON membrane, not washed • Background (3 wells): assay with H2O instead of enzyme • Positive control (4 wells): 3% DMSO instead of compound • Bath control (1 well): no reaction mix
IC50 values are calculated by logarithmic regression analysis of the percentage inhibition of each compound at 4 concentrations (usually 3- or 10-fold dilution series starting at 10 μM). In each experiment, the actual inhibition by reference compound is used for normalization of IC50 values to the basis of an average value of the reference inhibitor:
Normalized IC50=measured IC50 average ref. IC50/measured ref. IC50

T1 sequence (Q13547 whole entry, species assumed): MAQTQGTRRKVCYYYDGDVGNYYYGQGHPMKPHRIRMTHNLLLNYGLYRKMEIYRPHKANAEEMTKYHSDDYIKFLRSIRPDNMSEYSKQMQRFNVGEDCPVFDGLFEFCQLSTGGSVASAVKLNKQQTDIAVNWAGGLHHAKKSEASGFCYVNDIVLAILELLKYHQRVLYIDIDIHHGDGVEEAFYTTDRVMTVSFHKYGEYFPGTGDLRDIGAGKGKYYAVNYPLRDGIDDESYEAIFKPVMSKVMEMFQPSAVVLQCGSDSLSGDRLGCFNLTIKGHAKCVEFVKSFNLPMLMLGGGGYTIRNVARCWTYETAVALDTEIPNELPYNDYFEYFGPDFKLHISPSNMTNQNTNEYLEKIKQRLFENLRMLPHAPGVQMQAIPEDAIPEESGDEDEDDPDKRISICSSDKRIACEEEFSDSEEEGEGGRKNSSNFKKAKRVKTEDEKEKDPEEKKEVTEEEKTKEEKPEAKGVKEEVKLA

Structure (SMILES) | IC50 (HCT116) [µM] | IC50 (HDAC-1) [µM]
O=C(/C=C/c1ccc(CN2CCC[C@H]2Cc2c[nH]c3ccccc23)cc1)NO [Cpd 1, (E)-N-Hydroxy-3-{4-[(S)-2-(1H-indol-3-ylmethyl)-pyrrolidin-1-ylmethyl]-phenyl}-acrylamide] | 0.1 | 0.01
Cc1[nH]c2ccccc2c1C[C@H]1C[C@H](O)CN1Cc1ccc(/C=C/C(=O)NO)cc1 [Cpd 21, (E)-N-Hydroxy-3-{4-[(2S,4S)-4-hydroxy-2-(2-methyl-1H-indol-3-ylmethyl)-pyrrolidin-l-ylmethyl]-phenyl}-acrylamide] | 0.001 | 0.0007
O=C(/C=C/c1ccc(CN2CCC[C@H]2CN2CCc3ccccc32)cc1)NO [Cpd 19, (E)-3-{4-[(S)-2-(2,3-Dihydro-indol-1-ylmethyl)-pyrrolidin-1-ylmethyl]-phenyl}-N-hydroxy-acrylamide] | 0.1 | 0.036
O=C(/C=C/c1ccc(CN2CCC[C@H]2C(=O)c2c[nH]c3ccccc23)cc1)NO [Cpd 11, (E)-N-Hydroxy-3-{4-[(S)-2-(1H-indole-3-carbonyl)-pyrrolidin-1-ylmethyl]-phenyl}-acrylamide] | 0.56 | 0.056
Cc1nn(C)c(C)c1C[C@H]1C[C@H](O)CN1Cc1ccc(/C=C/C(=O)NO)cc1 [Cpd 31, (E)-N-Hydroxy-3-{4-[(2S,4S)-4-hydroxy-2-(1,3,5-trimethyl-1H-pyrazol-4-ylmethyl)-pyrrolidin-1-ylmethyl]-phenyl}-acrylamide] | 0.016 | 0.002
O=C(/C=C/c1ccc(CN2C[C@H](O)C[C@@H]2Cn2nc(C(F)(F)F)cc2C(F)(F)F)cc1)NO [Cpd 52, (E)-3-{4-[(2R,4R)-2-(3,5-Bis-trifluoromethyl-pyrazol-1-ylmethyl)-4-hydroxy-pyrrolidin-1-ylmethyl]-phenyl}-N-hydroxy-acrylamide] | 0.052 | 0.037
Cc1[nH]c2ccccc2c1C[C@H]1CCCN1[C@H](C)c1ccc(/C=C/C(=O)NO)cc1 [Cpd 15, (E)-N-Hydroxy-3-(4-{(R)-1-[(R)-2-(2-methyl-1H-indol-3-ylmethyl)-pyrrolidin-1-yl]-ethyl}-phenyl)-acrylamide] | 0.003 | 0.001
O=C(/C=C/c1ccc(CN2CCC[C@@H]2Cc2nc(-c3ccccc3)no2)cc1)NO [Cpd 39, (E)-N-Hydroxy-3-{4-[(R)-2-(3-phenyl-[1,2,4]oxadiazol-5-ylmethyl)-pyrrolidin-1-ylmethyl]-phenyl}-acrylamide] | – | 0.02
Cc1[nH]c2ccccc2c1C[C@H]1CCCN1[C@@H](C)c1ccc(/C=C/C(=O)NO)cc1 [Cpd 14, (E)-N-Hydroxy-3-(4-{(S)-1-[(R)-2-(2-methyl-1H-indol-3-ylmethyl)-pyrrolidin-1-yl]-ethyl}-phenyl)-acrylamide] | 0.0024 | 0.0013
O=C(/C=C/c1ccc(CN2CCC[C@H]2Cc2c[nH]c3ccccc23)c(F)c1)NO [Cpd 8, (E)-3-{3-Fluoro-4-[(S)-2-(1H-indol-3-ylmethyl)-pyrrolidin-1-ylmethyl]-phenyl}-N-hydroxy-acrylamide] | 0.083 | 0.01
CC(C)CC1CCCN1Cc1ccc(/C=C/C(=O)NO)cc1 (stereo not drawn) [Cpd 5, (E)-N-Hydroxy-3-[4-(2-isobutyl-pyrrolidin-1-ylmethyl)-phenyl]-acrylamide] | – | 0.008
Cc1nn(-c2ccccc2)c(C)c1C[C@H]1C[C@H](O)CN1Cc1ccc(/C=C/C(=O)NO)cc1 [Cpd 33, (E)-3-{4-[(2S,4S)-2-(3,5-Dimethyl-1-phenyl-1H-pyrazol-4-ylmethyl)-4-hydroxy-pyrrolidin-1-ylmethyl]-phenyl}-N-hydroxy-acrylamide] | – | 0.0007
O=C(/C=C/c1ccc(CN2CCC[C@@H]2C(=O)N2CCc3ccccc32)cc1)NO [Cpd 17, (E)-3-{4-[(R)-2-(2,3-Dihydro-indole-1-carbonyl)-pyrrolidin-1-ylmethyl]-phenyl}-N-hydroxy-acrylamide] | 0.95 | 0.21
O=C(/C=C/c1ccc(CN2CCC[C@@H]2Cn2nc(C(F)(F)F)cc2C(F)(F)F)cc1)NO [Cpd 51, (E)-3-{4-[(R)-2-(3,5-Bis-trifluoromethyl-pyrazol-1-ylmethyl)-pyrrolidin-1-ylmethyl]-phenyl}-N-hydroxy-acrylamide] | 0.031 | 0.039
O=C(/C=C/c1ccc(CN2CCC[C@@H]2C(=O)c2c[nH]c3ccccc23)cc1)NO [Cpd 12, (E)-N-Hydroxy-3-{4-[(R)-2-(1H-indole-3-carbonyl)-pyrrolidin-1-ylmethyl]-phenyl}-acrylamide] | 0.52 | 0.038
Cc1[nH]c2ccccc2c1C[C@H]1CCCN1Cc1ccc(/C=C/C(=O)NO)cc1F [Cpd 10, (E)-3-{3-Fluoro-4-[(R)-2-(2-methyl-1H-indol-3-ylmethyl)-pyrrolidin-1-ylmethyl]-phenyl}-N-hydroxy-acrylamide] | 0.0006 | 0.0007
Cc1[nH]c2ccccc2c1C[C@H]1CCCN1Cc1ccc(/C=C/C(=O)NO)cn1 [Cpd 26, (E)-N-Hydroxy-3-{6-[(R)-2-(2-methyl-1H-indol-3-ylmethyl)-pyrrolidin-1-ylmethyl]-pyridin-3-yl}-acrylamide] | – | 0.0017
CC(c1ccc(/C=C/C(=O)NO)cc1)N1CCC[C@H]1CN1CCCC1 (stereo partly drawn) [Cpd 16, (E)-N-Hydroxy-3-{4-[1-((S)-2-pyrrolidin-1-ylmethyl-pyrrolidin-1-yl)-ethyl]-phenyl}-acrylamide] | – | 0.38
O=C(/C=C/c1ccc(CN2CCCC2Cc2cccnc2)cc1)NO (stereo not drawn) [Cpd 6, (E)-N-Hydroxy-3-[4-(2-pyridin-3-ylmethyl-pyrrolidin-1-ylmethyl)-phenyl]-acrylamide] | – | 0.005
CO[C@@H]1C[C@H](Cc2c(C)[nH]c3ccccc23)N(Cc2ccc(/C=C/C(=O)NO)cc2)C1 [Cpd 24, (E)-N-Hydroxy-3-{4-[(2S,4R)-4-methoxy-2-(2-methyl-1H-indol-3-ylmethyl)-pyrrolidin-1-ylmethyl]-phenyl}-acrylamide] | 0.0005 | 0.0012
O=C(/C=C/c1ccc(CN2CCC[C@@H]2Cn2cccn2)cc1)NO [Cpd 49, (E)-N-Hydroxy-3-[4-((R)-2-pyrazol-1-ylmethyl-pyrrolidin-1-ylmethyl)-phenyl]-acrylamide] | 0.026 | 0.015
O=C(/C=C/c1ccc(CN2C[C@H](O)C[C@@H]2Cn2cc(-c3cccnc3)nn2)cc1)NO [Cpd 41, (E)-N-Hydroxy-3-{4-[(2R,4R)-4-hydroxy-2-(4-pyridin-3-yl-[1,2,3]triazol-1-ylmethyl)-pyrrolidin-1-ylmethyl]-phenyl}-acrylamide] | – | 0.17
Cc1nn(-c2ccccc2)c(C)c1C(O)[C@H]1C[C@H](O)CN1Cc1ccc(/C=C/C(=O)NO)cc1 (stereo partly drawn) [Cpd 34, (E)-3-(4-{(2R,4S)-2-[(3,5-Dimethyl-1-phenyl-1H-pyrazol-4-yl)-hydroxy-methyl]-4-hydroxy-pyrrolidin-1-ylmethyl}-phenyl)-N-hydroxy-acrylamide] | – | 0.027
Cc1[nH]c2ccccc2c1C[C@H]1C[C@H](O)CN1Cc1ccc(/C=C/C(=O)NO)cn1 [Cpd 28, (E)-N-Hydroxy-3-{6-[(2S,4S)-4-hydroxy-2-(2-methyl-1H-indol-3-ylmethyl)-pyrrolidin-1-ylmethyl]-pyridin-3-yl}-acrylamide] | – | 0.0017

— patent US20110060009A1, “Hydroxamate-Based Inhibitors of Deacetylases” (NOVARTIS AG, priority 2009, published 2011)
